Laboratory results taken from PubChem BioAssay (NCI).
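Each compound was tested at five concentrations against cells in 96-well plates for 48 hours. TGI marks complete inhibition of growth.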

How the values were obtained:
Experiment in all cases: NCI tumour cell line growth inhibition, 48 h
U251 CNS = system: U251 CNS
OVCAR-3 ovarian = system: OVCAR-3 ovarian
NCI-H522 lung = system: NCI-H522 lung
786-0 renal = system: 786-0 renal
MALME-3M melanoma = system: MALME-3M melanoma
HOP-92 NSCLC = system: HOP-92 NSCLC
DMS 114 small cell lung = system: DMS 114 small cell lung
K-562 leukemia = system: K-562 leukemia
UO-31 renal = system: UO-31 renal
DMS 273 small cell lung = system: DMS 273 small cell lung
SW-620 colon = system: SW-620 colon
TK-10 renal = system: TK-10 renal
RXF 393 renal = system: RXF 393 renal
MOLT-4 leukemia = system: MOLT-4 leukemia
M14 melanoma = system: M14 melanoma
XF 498 CNS = system: XF 498 CNS
HCC-2998 colon = system: HCC-2998 colon
SNB-19 CNS = system: SNB-19 CNS
NCI-H23 lung = system: NCI-H23 lung
KM20L2 colon = system: KM20L2 colon
OVCAR-4 ovarian = system: OVCAR-4 ovarian
UACC-257 melanoma = system: UACC-257 melanoma
SNB-78 CNS = system: SNB-78 CNS
LXFL 529 NSCLC = system: LXFL 529 NSCLC
SF-539 CNS = system: SF-539 CNS
SK-MEL-28 melanoma = system: SK-MEL-28 melanoma
CCRF-CEM leukemia = system: CCRF-CEM leukemia
HT29 colon = system: HT29 colon
COLO 205 colon = system: COLO 205 colon
HCT-116 colon = system: HCT-116 colon
EKVX NSCLC = system: EKVX NSCLC
SK-OV-3 ovarian = system: SK-OV-3 ovarian
M19-MEL melanoma = system: M19-MEL melanoma
HOP-62 NSCLC = system: HOP-62 NSCLC
SF-295 CNS = system: SF-295 CNS
SN12C renal = system: SN12C renal
RPMI-8226 leukemia = system: RPMI-8226 leukemia
A549 NSCLC = system: A549 NSCLC
SF-268 CNS = system: SF-268 CNS
RXF-631 renal = system: RXF-631 renal
A498 renal = system: A498 renal
OVCAR-5 ovarian = system: OVCAR-5 ovarian
LOX IMVI melanoma = system: LOX IMVI melanoma
DLD-1 colon = system: DLD-1 colon
ACHN renal = system: ACHN renal
KM12 colon = system: KM12 colon
UACC-62 melanoma = system: UACC-62 melanoma
NCI-H460 lung = system: NCI-H460 lung
OVCAR-8 ovarian = system: OVCAR-8 ovarian
CAKI-1 renal = system: CAKI-1 renal
SNB-75 CNS = system: SNB-75 CNS
SR leukemia = system: SR leukemia
HL-60(TB) leukemia = system: HL-60(TB) leukemia
HOP-18 NSCLC = system: HOP-18 NSCLC
IGROV1 ovarian = system: IGROV1 ovarian
NCI-H226 lung = system: NCI-H226 lung
HCT-15 colon = system: HCT-15 colon
SN12K1 renal = system: SN12K1 renal
P388 leukemia = system: P388 leukemia
SK-MEL-5 melanoma = system: SK-MEL-5 melanoma
P388/ADR leukemia = system: P388/ADR leukemia
MCF7 breast = system: MCF7 breast
SK-MEL-2 melanoma = system: SK-MEL-2 melanoma
NCI/ADR-RES ovarian = system: NCI/ADR-RES ovarian

Q: How did the TGI (U251 CNS) turn out when `N#C/C(=C1\OC(=O)C(c2ccc(Br)cc2)=C1O)c1ccc(Br)cc1` was run?
A: 26.1 µM

Q: What about the TGI (OVCAR-3 ovarian) of the same molecule?
A: 28.2 µM

Q: What about the TGI (NCI-H522 lung) of the same molecule?
A: 25.6 µM

Q: What about the TGI (786-0 renal) of the same molecule?
A: 27.9 µM

Q: And the TGI (MALME-3M melanoma)?
A: 31 µM

Q: What about the TGI (HOP-92 NSCLC) of the same molecule?
A: 30 µM

Q: What about the TGI (DMS 114 small cell lung) of the same molecule?
A: 25.9 µM

Q: What about the TGI (K-562 leukemia) of the same molecule?
A: 61.7 µM

Q: And the TGI (UO-31 renal)?
A: 28.5 µM

Q: What about the TGI (DMS 273 small cell lung) of the same molecule?
A: 48.2 µM

Q: What about the TGI (SW-620 colon) of the same molecule?
A: 27.3 µM

Q: And the TGI (TK-10 renal)?
A: 36.7 µM

Q: And the TGI (RXF 393 renal)?
A: 26.7 µM

Q: What about the TGI (MOLT-4 leukemia) of the same molecule?
A: 57.1 µM

Q: What about the TGI (M14 melanoma) of the same molecule?
A: 28.4 µM

Q: What about the TGI (XF 498 CNS) of the same molecule?
A: 25.6 µM

Q: What about the TGI (HCC-2998 colon) of the same molecule?
A: 28.9 µM

Q: And the TGI (SNB-19 CNS)?
A: 27.5 µM

Q: And the TGI (NCI-H23 lung)?
A: 26.2 µM

Q: And the TGI (KM20L2 colon)?
A: 31.5 µM

Q: What about the TGI (OVCAR-4 ovarian) of the same molecule?
A: 34.3 µM

Q: And the TGI (UACC-257 melanoma)?
A: 29.5 µM

Q: What about the TGI (SNB-78 CNS) of the same molecule?
A: 28.2 µM

Q: What about the TGI (LXFL 529 NSCLC) of the same molecule?
A: 22.1 µM

Q: What about the TGI (SF-539 CNS) of the same molecule?
A: 30 µM

Q: And the TGI (SK-MEL-28 melanoma)?
A: 31.7 µM

Q: And the TGI (CCRF-CEM leukemia)?
A: 51.1 µM

Q: And the TGI (HT29 colon)?
A: 34.5 µM

Q: And the TGI (COLO 205 colon)?
A: 34.5 µM

Q: And the TGI (HCT-116 colon)?
A: 32.4 µM

Q: And the TGI (EKVX NSCLC)?
A: 31.6 µM

Q: What about the TGI (SK-OV-3 ovarian) of the same molecule?
A: 39.9 µM

Q: What about the TGI (M19-MEL melanoma) of the same molecule?
A: 31.1 µM

Q: And the TGI (HOP-62 NSCLC)?
A: 33.3 µM

Q: And the TGI (SF-295 CNS)?
A: 32.8 µM

Q: What about the TGI (SN12C renal) of the same molecule?
A: 23.6 µM

Q: What about the TGI (RPMI-8226 leukemia) of the same molecule?
A: 43.6 µM

Q: What about the TGI (A549 NSCLC) of the same molecule?
A: 44.2 µM

Q: And the TGI (SF-268 CNS)?
A: 29.5 µM

Q: And the TGI (RXF-631 renal)?
A: 92.6 µM

Q: What about the TGI (A498 renal) of the same molecule?
A: 28.9 µM

Q: And the TGI (OVCAR-5 ovarian)?
A: 33.2 µM

Q: What about the TGI (LOX IMVI melanoma) of the same molecule?
A: 30.7 µM

Q: What about the TGI (DLD-1 colon) of the same molecule?
A: 34.6 µM

Q: What about the TGI (ACHN renal) of the same molecule?
A: 29.6 µM

Q: What about the TGI (KM12 colon) of the same molecule?
A: 28.5 µM

Q: And the TGI (UACC-62 melanoma)?
A: 25.9 µM

Q: What about the TGI (NCI-H460 lung) of the same molecule?
A: 30.4 µM

Q: And the TGI (OVCAR-8 ovarian)?
A: 24.6 µM

Q: What about the TGI (CAKI-1 renal) of the same molecule?
A: 35.6 µM

Q: What about the TGI (SNB-75 CNS) of the same molecule?
A: 32.4 µM

Q: And the TGI (SR leukemia)?
A: 55.6 µM

Q: What about the TGI (HL-60(TB) leukemia) of the same molecule?
A: 44.6 µM

Q: And the TGI (HOP-18 NSCLC)?
A: 26.3 µM

Q: What about the TGI (IGROV1 ovarian) of the same molecule?
A: 34.4 µM

Q: What about the TGI (NCI-H226 lung) of the same molecule?
A: 34 µM

Q: `CCOC(=O)C1=C(C(C)=O)CSC(c2ccccc2)=N1` was tested. Which TGI (U251 CNS) did it give?
A: > 100 µM

Q: What about the TGI (OVCAR-3 ovarian) of the same molecule?
A: > 100 µM

Q: And the TGI (NCI-H522 lung)?
A: > 100 µM

Q: And the TGI (HCT-15 colon)?
A: > 100 µM

Q: What about the TGI (MALME-3M melanoma) of the same molecule?
A: > 100 µM

Q: What about the TGI (HOP-92 NSCLC) of the same molecule?
A: > 100 µM

Q: And the TGI (DMS 114 small cell lung)?
A: > 100 µM

Q: What about the TGI (K-562 leukemia) of the same molecule?
A: > 100 µM

Q: What about the TGI (UO-31 renal) of the same molecule?
A: > 100 µM

Q: And the TGI (DMS 273 small cell lung)?
A: > 100 µM

Q: And the TGI (SW-620 colon)?
A: > 100 µM

Q: And the TGI (SN12K1 renal)?
A: > 100 µM

Q: And the TGI (RXF 393 renal)?
A: > 100 µM

Q: What about the TGI (P388 leukemia) of the same molecule?
A: > 100 µM

Q: And the TGI (MOLT-4 leukemia)?
A: > 100 µM

Q: And the TGI (XF 498 CNS)?
A: > 100 µM

Q: And the TGI (HCC-2998 colon)?
A: > 100 µM

Q: What about the TGI (SNB-19 CNS) of the same molecule?
A: > 100 µM

Q: And the TGI (NCI-H23 lung)?
A: > 100 µM

Q: What about the TGI (KM20L2 colon) of the same molecule?
A: > 100 µM

Q: And the TGI (OVCAR-4 ovarian)?
A: > 100 µM

Q: And the TGI (UACC-257 melanoma)?
A: > 100 µM

Q: And the TGI (SNB-78 CNS)?
A: > 100 µM

Q: And the TGI (SF-539 CNS)?
A: > 100 µM

Q: And the TGI (SK-MEL-28 melanoma)?
A: > 100 µM

Q: What about the TGI (CCRF-CEM leukemia) of the same molecule?
A: > 100 µM

Q: What about the TGI (HT29 colon) of the same molecule?
A: > 100 µM

Q: What about the TGI (COLO 205 colon) of the same molecule?
A: > 100 µM

Q: What about the TGI (HCT-116 colon) of the same molecule?
A: > 100 µM

Q: And the TGI (EKVX NSCLC)?
A: > 100 µM

Q: What about the TGI (SK-OV-3 ovarian) of the same molecule?
A: > 100 µM

Q: What about the TGI (SK-MEL-5 melanoma) of the same molecule?
A: > 100 µM

Q: And the TGI (M19-MEL melanoma)?
A: > 100 µM

Q: And the TGI (SF-295 CNS)?
A: > 100 µM

Q: And the TGI (SN12C renal)?
A: > 100 µM

Q: What about the TGI (RPMI-8226 leukemia) of the same molecule?
A: > 100 µM

Q: And the TGI (A549 NSCLC)?
A: > 100 µM

Q: What about the TGI (SF-268 CNS) of the same molecule?
A: > 100 µM

Q: And the TGI (A498 renal)?
A: > 100 µM

Q: And the TGI (OVCAR-5 ovarian)?
A: > 100 µM

Q: What about the TGI (LOX IMVI melanoma) of the same molecule?
A: > 100 µM

Q: And the TGI (DLD-1 colon)?
A: > 100 µM

Q: And the TGI (P388/ADR leukemia)?
A: > 100 µM

Q: And the TGI (KM12 colon)?
A: > 100 µM

Q: And the TGI (UACC-62 melanoma)?
A: > 100 µM

Q: What about the TGI (NCI-H460 lung) of the same molecule?
A: > 100 µM

Q: What about the TGI (OVCAR-8 ovarian) of the same molecule?
A: > 100 µM

Q: And the TGI (MCF7 breast)?
A: > 100 µM

Q: What about the TGI (CAKI-1 renal) of the same molecule?
A: > 100 µM

Q: What about the TGI (SNB-75 CNS) of the same molecule?
A: > 100 µM

Q: And the TGI (HL-60(TB) leukemia)?
A: > 100 µM

Q: And the TGI (HOP-18 NSCLC)?
A: > 100 µM

Q: What about the TGI (SK-MEL-2 melanoma) of the same molecule?
A: > 100 µM

Q: And the TGI (IGROV1 ovarian)?
A: > 100 µM

Q: What about the TGI (NCI/ADR-RES ovarian) of the same molecule?
A: > 100 µM

Q: What about the TGI (NCI-H226 lung) of the same molecule?
A: > 100 µM
